Data as given in ChEMBL document CHEMBL1201862, “PubChem BioAssay data set” (2004).
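A five-concentration, 48-hour dose response in 96-well plates underlies each endpoint, interpolated linearly between surrounding concentrations. GI50 marks 50% less growth.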 Activity calls are given as the source filed them. Cut-off read from the data, not from the text of the source: active = GI50 up to about 1.1 µM and inactive = higher.

Legend:
Test in all cases: NCI tumour cell line growth inhibition, 48 h
BT-549 = test system: BT-549
HOP-62 = test system: HOP-62
HT-29 = test system: HT-29
KM12 = test system: KM12
M14 = test system: M14
MDA-MB-231 = test system: MDA-MB-231
NCI-H23 = test system: NCI-H23
OVCAR-3 = test system: OVCAR-3
PC-3 = test system: PC-3
RXF 393 = test system: RXF 393
SF-268 = test system: SF-268
SK-MEL-28 = test system: SK-MEL-28
SK-OV-3 = test system: SK-OV-3
SN12C = test system: SN12C
SNB-75 = test system: SNB-75
SW-620 = test system: SW-620
TK-10 = test system: TK-10
U-251 = test system: U-251
RPMI-8226 = test system: RPMI-8226
SR = test system: SR

Measured: GI50

COC(=O)c1ccccc1C1CN=NC12Cc1ccc3c(c1C2=O)CCC3 (configuration not stated)
inactive: BT-549 > 100 µM | HOP-62 > 100 µM | HT-29 82 µM | KM12 42.1 µM | M14 > 100 µM | MDA-MB-231 75.5 µM | NCI-H23 19.2 µM | OVCAR-3 6.92 µM | PC-3 49.3 µM | RXF 393 67.9 µM | SF-268 27.6 µM | SK-MEL-28 > 100 µM | SK-OV-3 49.4 µM | SN12C > 100 µM | SNB-75 58.6 µM | SW-620 > 100 µM | TK-10 > 100 µM | U-251 49.1 µM

O=C1C(=c2cc3c(c4ccccc24)=NC24CCCCC2C(c2ccccc2)C=C(c2ccccc2)N34)C(=O)c2ccccc21 (configuration not stated)
inactive: HOP-62 74 µM | HT-29 53 µM | KM12 30.4 µM | M14 44 µM | MDA-MB-231 15.4 µM | OVCAR-3 22 µM | PC-3 25.8 µM | RPMI-8226 11.4 µM | RXF 393 18.5 µM | SF-268 30.3 µM | SK-MEL-28 47.2 µM | SK-OV-3 > 100 µM | SN12C > 100 µM | SNB-75 54 µM | SR 26.4 µM | SW-620 37.7 µM | TK-10 > 100 µM | U-251 36.8 µM

O=C1/C(=C\c2ccc(Cl)cc2)N=C(c2ccccc2)N1n1c(=O)cn[nH]c1=S
inactive: BT-549 28.5 µM | HOP-62 52.2 µM | HT-29 37.7 µM | KM12 > 100 µM | M14 > 100 µM | NCI-H23 20.3 µM | OVCAR-3 27.4 µM | PC-3 39.7 µM | RPMI-8226 18.4 µM | SK-MEL-28 > 100 µM | SK-OV-3 > 100 µM | SR 22.5 µM | SW-620 18.1 µM | U-251 19.8 µM

COc1cc(S(=O)(=O)Nc2ccc(-c3csc(N4C(=O)CSC4c4ccccc4)n3)cc2)ccc1Cl (configuration not stated)
inactive: BT-549 75.5 µM | HOP-62 81.8 µM | HT-29 54.2 µM | KM12 30.5 µM | M14 43.8 µM | NCI-H23 > 100 µM | OVCAR-3 > 100 µM | PC-3 41.3 µM | RPMI-8226 24.4 µM | RXF 393 29.2 µM | SF-268 33.7 µM | SK-MEL-28 22.9 µM | SK-OV-3 > 100 µM | SN12C > 100 µM | SNB-75 67.3 µM | SR 32.3 µM | SW-620 42.4 µM

C=C1CC[C@H]2C(=O)OC(c3ccoc3)C[C@]2(C)C/C=C\C=C/1C(=O)OC (some centres not stated)
inactive: BT-549 > 25 µM | HOP-62 > 25 µM | HT-29 > 25 µM | KM12 > 25 µM | M14 > 25 µM | MDA-MB-231 > 25 µM | NCI-H23 11.4 µM | OVCAR-3 13.9 µM | PC-3 > 25 µM | RXF 393 > 25 µM | SK-MEL-28 > 25 µM | SK-OV-3 > 25 µM | SN12C > 25 µM | SNB-75 24 µM | SW-620 > 25 µM | TK-10 > 25 µM | U-251 > 25 µM

C[C@H](c1ccccc1)N1C(=O)[C@@H](O)[C@H]1[C@H](CO)OCc1ccccc1
inactive: HOP-62 > 100 µM | HT-29 > 100 µM | KM12 > 100 µM | M14 > 100 µM | MDA-MB-231 > 100 µM | NCI-H23 > 100 µM | OVCAR-3 > 100 µM | PC-3 > 100 µM | RPMI-8226 > 100 µM | SF-268 > 100 µM | SK-MEL-28 > 100 µM | SK-OV-3 > 100 µM | SN12C > 100 µM | SNB-75 > 100 µM | SR > 100 µM | SW-620 > 100 µM | TK-10 > 100 µM | U-251 > 100 µM

CC(C)OP(=O)(OC(C)C)C(C(C)C)N(C)/C(F)=N/C(F)(F)F (configuration not stated)
inactive: BT-549 > 100 µM | HOP-62 > 100 µM | HT-29 > 100 µM | KM12 > 100 µM | M14 > 100 µM | MDA-MB-231 > 100 µM | NCI-H23 > 100 µM | OVCAR-3 > 100 µM | PC-3 > 100 µM | RXF 393 > 100 µM | SF-268 > 100 µM | SK-MEL-28 > 100 µM | SK-OV-3 > 100 µM | SN12C > 100 µM | SNB-75 > 100 µM | SW-620 > 100 µM | TK-10 > 100 µM | U-251 > 100 µM

O=C(c1cc(Cl)cc(Cl)c1)N(C(=O)N1CCN(c2ccccc2)CC1)c1ccccc1
inactive: BT-549 48.1 µM | HOP-62 87.1 µM | HT-29 25.6 µM | KM12 23.5 µM | M14 27.6 µM | MDA-MB-231 52.1 µM | NCI-H23 41.1 µM | OVCAR-3 66.1 µM | PC-3 25.1 µM | RXF 393 37 µM | SF-268 43.1 µM | SK-MEL-28 56.1 µM | SK-OV-3 96.6 µM | SN12C 55.6 µM | SNB-75 > 100 µM | SW-620 30.3 µM | TK-10 54.6 µM | U-251 39.7 µM

Cc1cc2c(cc1Cl)SC(c1ccccc1)C(=O)NS2(=O)=O (configuration not stated)
inactive: HOP-62 44.3 µM | HT-29 32 µM | KM12 30.3 µM | M14 39 µM | MDA-MB-231 32.3 µM | NCI-H23 24.4 µM | OVCAR-3 21.6 µM | PC-3 26.4 µM | RPMI-8226 34 µM | RXF 393 31.4 µM | SF-268 33.3 µM | SK-MEL-28 34.8 µM | SK-OV-3 31.9 µM | SNB-75 19.7 µM | SR 27.5 µM | SW-620 40 µM | TK-10 37.6 µM | U-251 23.1 µM

Cc1cn([C@H]2CN(O)C[C@@H](CO)O2)c(=O)[nH]c1=O
inactive: BT-549 > 100 µM | HOP-62 > 100 µM | KM12 > 100 µM | M14 > 100 µM | MDA-MB-231 > 100 µM | PC-3 > 100 µM | RPMI-8226 > 100 µM | RXF 393 > 100 µM | SF-268 > 100 µM | SK-MEL-28 > 100 µM | SK-OV-3 > 100 µM | SN12C > 100 µM | SNB-75 > 100 µM | SW-620 > 100 µM | TK-10 > 100 µM | U-251 > 100 µM

O=C(O)c1ccccc1CC(Cc1ccc2c(c1)CCC2)C(=O)O (configuration not stated)
inactive: HOP-62 > 100 µM | HT-29 > 100 µM | KM12 > 100 µM | M14 > 100 µM | MDA-MB-231 > 100 µM | NCI-H23 > 100 µM | OVCAR-3 > 100 µM | PC-3 > 100 µM | RPMI-8226 > 100 µM | RXF 393 > 100 µM | SF-268 > 100 µM | SK-MEL-28 > 100 µM | SK-OV-3 > 100 µM | SN12C > 100 µM | SNB-75 > 100 µM | SR 8.07 µM | SW-620 > 100 µM | TK-10 > 100 µM | U-251 > 100 µM

Brc1ccc(-c2cc(-c3ccc4c(c3)OCO4)c(-c3cccs3)n2Cc2ccccc2)cc1
inactive: HOP-62 > 100 µM | HT-29 > 100 µM | KM12 > 100 µM | M14 > 100 µM | MDA-MB-231 > 100 µM | PC-3 > 100 µM | RPMI-8226 > 100 µM | RXF 393 > 100 µM | SF-268 > 100 µM | SK-MEL-28 > 100 µM | SK-OV-3 > 100 µM | SN12C > 100 µM | SNB-75 > 100 µM | SR > 100 µM | SW-620 > 100 µM | TK-10 > 100 µM | U-251 > 100 µM

CN(C)/C=N/c1ccc2nonc2c1
inactive: HOP-62 > 100 µM | HT-29 > 100 µM | KM12 > 100 µM | M14 > 100 µM | MDA-MB-231 > 100 µM | NCI-H23 > 100 µM | OVCAR-3 > 100 µM | PC-3 > 100 µM | RPMI-8226 > 100 µM | RXF 393 > 100 µM | SF-268 > 100 µM | SK-MEL-28 > 100 µM | SK-OV-3 > 100 µM | SN12C > 100 µM | SNB-75 > 100 µM | SR > 100 µM | SW-620 > 100 µM | TK-10 > 100 µM

C=CC1(C)OC2(CCN(C(=O)OCC)CC2)OC1C (configuration not stated)
inactive: HOP-62 > 100 µM | HT-29 > 100 µM | KM12 > 100 µM | M14 > 100 µM | MDA-MB-231 > 100 µM | NCI-H23 > 100 µM | OVCAR-3 > 100 µM | PC-3 > 100 µM | RPMI-8226 > 100 µM | RXF 393 > 100 µM | SF-268 > 100 µM | SK-MEL-28 > 100 µM | SK-OV-3 > 100 µM | SNB-75 > 100 µM | SR > 100 µM | SW-620 > 100 µM | TK-10 > 100 µM | U-251 > 100 µM

N#C/N=C(/N)c1sc2nc3c(c(-c4ccc(Br)cc4)c2c1N)CCCC3
inactive: HT-29 18.5 µM | KM12 21.3 µM | M14 21.8 µM | MDA-MB-231 20.6 µM | NCI-H23 26.1 µM | PC-3 11.6 µM | RPMI-8226 17.1 µM | RXF 393 17.7 µM | SF-268 35 µM | SK-MEL-28 32.9 µM | SK-OV-3 28.1 µM | SN12C 21.5 µM | SR 2.64 µM | SW-620 43.7 µM | TK-10 33.1 µM | U-251 24.2 µM

C[C@H]1C[C@H](C)c2ccccc2N(C)/C1=N\c1ccccc1
inactive: HOP-62 19.3 µM | HT-29 4.58 µM | KM12 43.3 µM | M14 21.5 µM | MDA-MB-231 14.8 µM | NCI-H23 20.4 µM | OVCAR-3 28.1 µM | PC-3 29.9 µM | RPMI-8226 36.7 µM | RXF 393 34.6 µM | SF-268 56 µM | SK-MEL-28 28.1 µM | SN12C 36.6 µM | SNB-75 57.1 µM | SR 24.4 µM | SW-620 61.5 µM | TK-10 18.6 µM
